Holding throughout (type): in vivo, human
Experiment [1] deals with caspase-driven cell death (cCK18, caspase 3/7, flCK18). Kind of experiment: Phase 2 clinical trial in liver cirrhosis: mechanism-based biomarkers (cCK18, caspase 3/7, flCK18). As to conditions: overall patient population. As to the method:
(§1) A double-blind, placebo-controlled Phase 2 clinical trial was conducted at 26 U.S. sites and enrolled 86 patients with liver cirrhosis due to different etiologies, mild to moderate liver impairment as determine by Child Pugh classification and baseline MELD scores of 11 to 18. Patients were randomized 1:1 to receive either 25 mg of emricasan (IDN-6556) or placebo orally twice daily for three months. Endpoints included a change from baseline in cCK18 and changes from baseline in MELD and Child-Pugh scores, which are composite scores of laboratory parameters associated with liver synthetic and excretory function, such as serum albumin levels, international normalized ratio (INR) and total bilirubin levels.
(§2) Among the 86 subjects enrolled and receiving study drug, liver cirrhosis etiologies included alcohol (39%), hepatitis C virus (29%), non-alcoholic steatohepatitis, or NASH (23%), and other causes (9%). Baseline MELD scores were […] in 78% of enrolled subjects and >15 in 22% of enrolled subjects. Baseline Child-Pugh status was A in 43% of subjects and B in 56% of subjects.

The test system of experiment [2] is patients with liver cirrhosis. The experiment is described as follows: Phase 2 clinical trial in liver cirrhosis: common indicators of liver damage (ALT, AST). As to conditions: overall patient population. The protocol: as §1, §2
Experiment [3] deals with patients with liver cirrhosis. Kind of experiment: Phase 2 clinical trial in liver cirrhosis: liver function (MELD score, Child-Pugh score, total bilirubin, INR, albumin). Conditions: for INR Change at Month 3 / Total bilirubin Change at Month 3 / Albumin Change at Month 3 / Child-Pugh score Change at Month 3 / MELD score Change at Month 3: 25 mg orally twice daily, three months, LOCF. As to the method: as §1, §2
The overall trends were driven by statistically significant improvements in MELD and Child-Pugh scores in a high medical need subgroup of patients with baseline MELD scores ≥15, the established prerequisite for listing a patient for liver transplant.

Setting [4] is: baseline MELD ≥15 subgroup, after three months of treatment, placebo two of ten.

As for `C[C@H](NC(=O)C(=O)Nc1ccccc1C(C)(C)C)C(=O)N[C@@H](CC(=O)O)C(=O)COc1c(F)c(F)cc(F)c1F` [Emricasan, (3S)-3-[N—(N′-(2-tert-Butylphenyl) Oxamyl)Alaninyl]Amino-5-(2′,3′,5′,6′-Tetrafluorophenoxy)-4-Oxopentanoic Acid], the “other mechanism-based biomarkers (caspase 3/7, flCK18)” value in experiment [1] is on record as “positive changes”. The “cCK18 Change at Month 3” value in experiment [1] (N = 44, 25 mg orally twice daily for three months, last observation carried forward, baseline 289 U/L (geometric mean), p 0.04 vs placebo) is −4.6%. Further, in experiment [1] (N = 44, 25 mg orally twice daily, three months, LOCF, baseline 714 U/L, p 0.005 vs placebo), the “flCK18 Change at Month 3” value is reported as −18%. In addition, the “Caspase 3/7 Change at Month 3” value in experiment [1] (N = 44, 25 mg orally twice daily, three months, LOCF, baseline 2656 RLU, p <0.0001 vs placebo) was −45.5%. The “caspase-cleaved cytokeratin 18 (cCK18) vs. placebo” value in experiment [1] (adjusted for baseline MELD score and disease etiology, p=0.04) was “statistically significant reduction”. For the same molecule, the “common indicators of liver damage (ALT, AST)” value in experiment [2] was “positive changes”. Moreover, in experiment [2] (N = 44, 25 mg orally twice daily, three months, LOCF, baseline 27.5, p 0.03 vs placebo), the “ALT Change at Month 3 (median change)” value is −3.0 U/L. In addition, in experiment [2] (N = 44, 25 mg orally twice daily, three months, LOCF, baseline 50.0, p 0.08 vs placebo), the “AST Change at Month 3 (median change)” value is on record as −5.0 U/L. The “INR Change at Month 3” value in experiment [3] (baseline MELD score ≥15 patient population, N = 9, baseline 1.54, p 0.0004 vs placebo) was −0.14; in experiment [3] (overall patient population, N = 44, baseline 1.33, p 0.12 vs placebo), −0.02. The “Total bilirubin Change at Month 3” value in experiment [3] (baseline MELD score ≥15 patient population, N = 9, baseline 3.17, p 0.03 vs placebo) was -0.55 mg/dL; in experiment [3] (overall patient population, N = 44, baseline 2.25, p 0.19 vs placebo), -0.05 mg/dL. In addition, the “Albumin Change at Month 3” value in experiment [3] (baseline MELD score ≥15 patient population, N = 9, baseline 3.41, p 0.78 vs placebo) is reported as “+0.07 g/dL”; in experiment [3] (overall patient population, N = 44, baseline 3.46, p 0.38 vs placebo), “+0.02 g/dL”. The “Child-Pugh score Change at Month 3” value is −0.6 in experiment [3] (baseline MELD score ≥15 patient population, N = 9, baseline 7.8, p 0.003 vs placebo) and −0.2 in experiment [3] (overall patient population, N = 44, baseline 6.9, p 0.10 vs placebo). In addition, the “MELD score Change at Month 3” value in experiment [3] (baseline MELD score ≥15 patient population, N = 9, baseline 16.0, p 0.003 vs placebo) is on record as −1.6; in experiment [3] (overall patient population, N = 44, baseline 12.8, p 0.50 vs placebo) it was −0.1. Further, the “patients with an increase in Child-Pugh score” value in experiment [3] (baseline MELD ≥15 subgroup, after three months of treatment, placebo four out of ten (at least one point increase)) is “none of nine”. Besides, the “patients who achieved a reduction in MELD score to below 14” value in experiment [3] (baseline MELD ≥15 subgroup, after three months of treatment, placebo one out of ten) is “Four of nine”. Also, the “patients who achieved at least a 2 point reduction in MELD score” value in experiment [3] (setting [4]) is on record as “Six of nine”. Further, in experiment [3] (setting [4]), the “patients with at least a one point reduction in Child Pugh score” value is reported as “Four of nine”.
